Active and inactive are the calls of the source. How the calls were made is not given here.
System: CCRIS mutagenicity, Ames/micronucleus/aberration tests
Experiment: CCRIS mutagenicity studies
[1] = Test System: AMES SALMONELLA TYPHIMURIUM, Strain/Indicator: TA98, Metabolic Activation: HAMSTER, LIVER, S-9, AROCLOR 1254, Method: STANDARD PLATE
[2] = Test System: AMES SALMONELLA TYPHIMURIUM, Strain/Indicator: TA98, Metabolic Activation: NONE, Method: PREINCUBATION
[3] = Test System: AMES SALMONELLA TYPHIMURIUM, Strain/Indicator: TA98, Metabolic Activation: NONE, Method: STANDARD PLATE
[4] = Test System: AMES SALMONELLA TYPHIMURIUM, Strain/Indicator: TA98, Metabolic Activation: RAT, LIVER, S-9, AROCLOR 1254, Method: PREINCUBATION
[5] = Test System: AMES SALMONELLA TYPHIMURIUM, Strain/Indicator: TA98, Metabolic Activation: RAT, LIVER, S-9, AROCLOR 1254, Method: STANDARD PLATE
[6] = Test System: AMES SALMONELLA TYPHIMURIUM, Strain/Indicator: TA100, Metabolic Activation: HAMSTER, LIVER, S-9, AROCLOR 1254, Method: STANDARD PLATE
[7] = Test System: AMES SALMONELLA TYPHIMURIUM, Strain/Indicator: TA100, Metabolic Activation: NONE, Method: PREINCUBATION
[8] = Test System: AMES SALMONELLA TYPHIMURIUM, Strain/Indicator: TA100, Metabolic Activation: NONE, Method: STANDARD PLATE
[9] = Test System: AMES SALMONELLA TYPHIMURIUM, Strain/Indicator: TA100, Metabolic Activation: RAT, LIVER, S-9, AROCLOR 1254, Method: PREINCUBATION
[10] = Test System: AMES SALMONELLA TYPHIMURIUM, Strain/Indicator: TA100, Metabolic Activation: RAT, LIVER, S-9, AROCLOR 1254, Method: STANDARD PLATE
[11] = Test System: AMES SALMONELLA TYPHIMURIUM, Strain/Indicator: TA1535, Metabolic Activation: HAMSTER, LIVER, S-9, AROCLOR 1254, Method: STANDARD PLATE
[12] = Test System: AMES SALMONELLA TYPHIMURIUM, Strain/Indicator: TA1535, Metabolic Activation: NONE, Method: STANDARD PLATE
[13] = Test System: AMES SALMONELLA TYPHIMURIUM, Strain/Indicator: TA1535, Metabolic Activation: RAT, LIVER, S-9, AROCLOR 1254, Method: STANDARD PLATE
[14] = Test System: AMES SALMONELLA TYPHIMURIUM, Strain/Indicator: TA1537, Metabolic Activation: HAMSTER, LIVER, S-9, AROCLOR 1254, Method: STANDARD PLATE
[15] = Test System: AMES SALMONELLA TYPHIMURIUM, Strain/Indicator: TA1537, Metabolic Activation: NONE, Method: STANDARD PLATE
[16] = Test System: AMES SALMONELLA TYPHIMURIUM, Strain/Indicator: TA1537, Metabolic Activation: RAT, LIVER, S-9, AROCLOR 1254, Method: STANDARD PLATE
[17] = Test System: AMES SALMONELLA TYPHIMURIUM, Strain/Indicator: TA1538, Metabolic Activation: HAMSTER, LIVER, S-9, AROCLOR 1254, Method: STANDARD PLATE
[18] = Test System: AMES SALMONELLA TYPHIMURIUM, Strain/Indicator: TA1538, Metabolic Activation: NONE, Method: STANDARD PLATE
[19] = Test System: AMES SALMONELLA TYPHIMURIUM, Strain/Indicator: TA1538, Metabolic Activation: RAT, LIVER, S-9, AROCLOR 1254, Method: STANDARD PLATE

Measured: mutagenic call

c1ccc2nccnc2c1
inactive: [1] inactive; negative | [2] inactive; negative | [3] inactive; negative | [5] inactive; negative | [6] inactive; negative | [7] inactive; negative | [8] inactive; negative | [9] inactive; negative | [10] inactive; negative | Test System: AMES SALMONELLA TYPHIMURIUM, Strain/Indicator: TA102, Metabolic Activation: NONE, Method: PREINCUBATION inactive; negative | Test System: AMES SALMONELLA TYPHIMURIUM, Strain/Indicator: TA102, Metabolic Activation: RAT, LIVER, S-9, AROCLOR 1254, Method: PREINCUBATION inactive; negative | [11] inactive; negative | [12] inactive; negative | [13] inactive; negative | [14] inactive; negative | [15] inactive; negative | [16] inactive; negative | [17] inactive; negative | [18] inactive; negative | [19] inactive; negative | Test System: Mouse lymphoma, Strain/Indicator: L5178Y (tk+/tk-), Metabolic Activation: None, Method: Suspension/plate inactive; negative
active: [4] active; positive | Test System: Mouse lymphoma, Strain/Indicator: L5178Y (tk+/tk-), Metabolic Activation: Rat, Liver, S-9, Aroclor 1254, Method: Suspension/plate active; positive

CC(=O)N(O)c1ccccc1C
inactive: [3] inactive; negative | [8] inactive; negative | [10] inactive; negative
active: [5] active; positive

CCOC(=O)C(Cl)C(C)=O (centres undefined)
inactive: [1] inactive; negative | [3] inactive; negative | [5] inactive; negative | [6] inactive; negative | [8] inactive; negative | [10] inactive; negative | [11] inactive; negative | [12] inactive; negative | [13] inactive; negative | [14] inactive; negative | [15] inactive; negative | [16] inactive; negative | [17] inactive; negative | [18] inactive; negative | [19] inactive; negative | Test System: MOUSE LYMPHOMA, Strain/Indicator: L5178Y (TK+/TK-), Metabolic Activation: NONE, Method: SUSPENSION/PLATE inactive; positive. reevaluation of results: negative
active: Test System: MOUSE LYMPHOMA, Strain/Indicator: L5178Y (TK+/TK-), Metabolic Activation: RAT, LIVER, S-9, AROCLOR 1254, Method: SUSPENSION/PLATE active; positive. reevaluation of results: inconclusive

CC(C)C(=O)N(O)c1ccc(Cl)cc1
inactive: [3] inactive; negative | [8] inactive; negative | [10] inactive; negative
active: [5] active; positive

Clc1cc2c3ccccc3ccc2c2ccccc12
inactive: [5] inactive; negative
active: [10] active; positive

CN1CCN(C2=Nc3ccccc3Oc3ccc(Cl)cc32)CC1
inactive: [3] inactive; negative | [5] inactive; negative | [8] inactive; negative | [10] inactive; negative | [12] inactive; negative | [13] inactive; negative | [15] inactive; negative | [16] inactive; negative

Cc1ccccc1NC(=O)c1csc([N+](=O)[O-])c1
active: [3] active; positive | [8] active; positive

Cc1c(N)cccc1N=Nc1cccc(N)c1C
inactive: [2] inactive; negative | [7] inactive; negative
active: Test System: AMES SALMONELLA TYPHIMURIUM, Strain/Indicator: TA98, Metabolic Activation: RAT, LIVER, S-9, PHENOBARBITAL AND 5,6-BENZOFLAVONE, Method: PREINCUBATION active; positive | Test System: AMES SALMONELLA TYPHIMURIUM, Strain/Indicator: TA100, Metabolic Activation: RAT, LIVER, S-9, PHENOBARBITAL AND 5,6-BENZOFLAVONE, Method: PREINCUBATION active; positive

O=NN1CSCC1C(=O)O (centres undefined)
inactive: [2] inactive; negative | [3] inactive; negative | [4] inactive; negative | [5] inactive; negative | [7] inactive; negative | [8] inactive; negative | [9] inactive; negative | [10] inactive; negative

CC(O)/C(=C(\c1ccccc1)c1ccc(OCCN(C)C)cc1)c1ccccc1 (centres undefined)
active: Test System: CHINESE HAMSTER V-79, Strain/Indicator: V79RHST (HPRT)/6-THIOGUANINE, Metabolic Activation: NONE active; positive
inactive: Test System: CHINESE HAMSTER V-79, Strain/Indicator: V79HHST (HPRT)/6-THIOGUANINE, Metabolic Activation: NONE inactive; negative
